Experimental data: patent US20130296311A1, “INHIBITORS OF HCV NS5A” (PRESIDIO PHARMACEUTICALS, INC., priority 2010, published 2013)

The molecules below were run on HCV 1b_Huh-Luc/Neo-ET cell line persistently expressing a bicistronic genotype 1b replicon in Huh 7 cells (assay: HCV replicon assay (luciferase readout, 72 h)). Details: Hepatitis C virus, Huh-7, 72 h, read-out: Inhibition of HCV genotype 1b.
Assay type: cell-based, HCV genotype 1b
Summary of the method: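 Huh 7 cells carrying a bicistronic genotype 1b luciferase/neo replicon received compound in triplicate the day after plating. After 72 h, replicon levels were read as Bright-Glo luciferase activity, expressed as % of control; EC50 was fitted with a four-parameter logistic and determined several times.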
In the case of COC(=O)N[C@@H](C(=O)N1CCC[C@H]1c1ncc(-c2ccc(C#Cc3ccc(-c4cnc([C@@H]5CCCN5C(=O)[C@H](NC(=O)OC)C(C)C)[nH]4)cc3)cc2)[nH]1)C(C)C [Compound 292], the EC50 is reported as > 1000 nM. COC(=O)N[C@@H](C(=O)N1CCC[C@H]1c1ncc(-c2ccc(C#Cc3ccc(-c4cnc([C@@H]5CCCN5C(=O)N5CCOCC5)[nH]4)cc3)cc2)[nH]1)c1ccccc1 [Compound 198] was tested, and the EC50 was < 1 nM. CN1CCC(C(=O)N[C@@H](C(=O)N2CCC[C@H]2c2cc(-c3ccc(C#Cc4ccc(-c5cnc([C@@H]6CCCN6C(=O)[C@H](NC(=O)C6CCN(C)CC6)c6ccccc6)[nH]5)cc4)cc3)n[nH]2)c2ccccc2)CC1 [Compound 223-1] was tested, and the EC50 was < 1 nM. [2H]C([2H])([2H])C([2H])(C([2H])([2H])[2H])[C@]([2H])(NC(=O)OC)C(=O)N1CCC[C@H]1c1nc2ccc(C#Cc3ccc4c(c3)CCc3nc([C@@H]5CCCN5C(=O)[C@@H](NC(=O)OC)C(C)C)[nH]c3-4)cc2[nH]1 [Compound 1106] was tested, and the EC50 was < 1 nM. For COC(=O)N[C@@H](C(=O)N1CCC[C@H]1c1ncc(-c2ccc(C#Cc3ccc(-c4cnc([C@@H]5CCCN5C(=O)[C@@H](c5ccccc5)N5CCOCC5)[nH]4)cc3)cc2)[nH]1)c1ccccc1 [Compound 185], the EC50 was < 1 nM. CN(C)[C@@H](C(=O)N1CCC[C@H]1c1ncc(C#Cc2ccc(-c3cnc([C@@H]4CCCN4C(=O)[C@H](NC(=O)C4CC4)c4ccccc4)[nH]3)cc2)[nH]1)c1ccccc1 [Compound 133] was tested, and the EC50 was < 1 nM. For COC(=O)N[C@@H](C(=O)N1CCC[C@H]1c1ncc(-c2ccc(C#Cc3ccc(C(=O)NC[C@@H]4CCCN4C(=O)[C@H](NC(=O)N4CCN(C)CC4)c4ccccc4)cc3)cc2)[nH]1)c1ccccc1 [Compound 236], the EC50 was < 1 nM. For COC(=O)N[C@H](C(=O)N1CCC[C@H]1c1nc2c([nH]1)-c1ccc(C#Cc3ccc4nc([C@@H]5CCCN5C(=O)[C@@H](NC(=O)OC)C5CCOCC5)[nH]c4c3)cc1CC2)C(C)C [Compound 1102], the EC50 was < 1 nM. In the case of COC(=O)N[C@@H](C(=O)N1CCC[C@H]1c1ncc(-c2ccc(C#Cc3ccc(-c4cnc([C@@H]5CCCN5C(=O)c5nccn5C)[nH]4)cc3)cc2)[nH]1)c1ccccc1 [Compound 176], the EC50 is reported as < 1 nM. In the case of COC(=O)N[C@H](C(=O)N[C@@H](C)c1ncc(-c2ccc(C#Cc3ccc(-c4cnc([C@@H]5CCCN5C(=O)[C@@H](NC(=O)OC)[C@@H](C)OC)[nH]4)cc3)cc2)[nH]1)[C@@H](C)OC [Compound 289], the EC50 is reported as < 1 nM. In the case of COC(=O)N[C@H](C(=O)N1CCC[C@H]1c1ncc(-c2ccc(C#Cc3ccc(-c4cnc([C@@H]5CCCN5C(=O)[C@H](NC(=O)N(CCO)CCO)c5ccccc5)[nH]4)cc3)cc2)[nH]1)C(C)C [Compound 973], the EC50 is reported as < 1 nM. CS(=O)(=O)N[C@@H](C(=O)N1CCC[C@H]1c1ncc(-c2ccc(C#Cc3ccc(-c4cnc([C@@H]5CCCN5C(=O)[C@@H](c5ccccc5)N5CCCC5)[nH]4)cc3)cc2)[nH]1)c1ccccc1 [Compound 230] was tested, and the EC50 was < 1 nM. For COC(=O)N[C@H]1CCC[C@@H]1C(=O)N1CCC[C@H]1c1ncc(-c2ccc(C#Cc3ccc4nc([C@@H]5CCCN5C(=O)[C@H]5CCC[C@@H]5NC(=O)OC)[nH]c4c3)cc2)[nH]1 [Compound 1059], the EC50 was 10 to 999 nM. COC(=O)N[C@H](C(=O)N1CCC[C@H]1c1nc(-c2ccc3cc(C#Cc4cnc([C@@H]5CCCN5C(=O)[C@@H](NC(=O)OC)C5CCOCC5)[nH]4)ccc3c2)c[nH]1)C(C)C [Compound 1079] was tested, and the EC50 was < 1 nM. In the case of COC(=O)N[C@@H](C(=O)N[C@@H](C)c1ncc(-c2ccc(C#Cc3ccc(-c4cnc([C@H](C)NC(=O)[C@H](NC(=O)OC)C(C)C)[nH]4)cc3)cc2)[nH]1)C(C)C [Compound 950], the EC50 is reported as < 1 nM. For COC(=O)N[C@H](C(=O)N1CCC[C@H]1c1nc2ccc(C#Cc3ccc(-c4cnc([C@@H]5CCCN5C(=O)[C@@H](C(C)C)N(C)C)[nH]4)cc3)cc2[nH]1)C(C)C [Compound 865], the EC50 was < 1 nM. With CC(C)[C@@H](NC(=O)OC(C)(C)C)C(=O)N1CCC[C@H]1c1ncc(-c2ccc(C#Cc3ccc(-c4cnc([C@@H]5CCCN5C(=O)[C@H](NC(=O)OC(C)(C)C)C(C)C)[nH]4)cc3)cc2)[nH]1 [Compound 152] the EC50 was 10 to 999 nM. CC(C)[C@H](NC(=O)N1CC[C@H](O)C1)C(=O)N1CCC[C@H]1c1ncc(-c2ccc(C#Cc3ccc(-c4cnc([C@@H]5CCCN5C(=O)[C@@H](NC(=O)N5CC[C@H](O)C5)C(C)C)[nH]4)cc3)cc2)[nH]1 [Compound 988] was tested, and the EC50 was 10 to 999 nM. COC(=O)N[C@@H](C(=O)N1CCC[C@H]1c1ncc(-c2ccc(C#Cc3ccc(-c4cnc([C@@H]5CCCN5C(=O)[C@H](NC(=O)N5CC[C@@H](O)C5)c5ccccc5)[nH]4)cc3)cc2)[nH]1)c1ccccc1 [Compound 268] was tested, and the EC50 was < 1 nM. In the case of O=C(N[C@@H](C(=O)N1CCC[C@H]1c1ncc(C#Cc2ccc(-c3ccc(-c4cnc([C@@H]5CCCN5C(=O)[C@H](NC(=O)N5CC[C@H](O)C5)c5ccccc5)[nH]4)cc3)cc2)[nH]1)c1ccccc1)N1CC[C@H](O)C1 [Compound 762], the EC50 is reported as < 1 nM. COC(=O)N[C@H](C(=O)N1CCC[C@H]1c1ncc(-c2ccc(C#Cc3ccc4c(c3)CCc3nc([C@@H]5CCCN5C(=O)[C@@H](NC(=O)OC)C(C)C)[nH]c3-4)cc2)[nH]1)C(C)C [Compound 1094] was tested, and the EC50 was < 1 nM. In the case of COC(=O)N[C@H](C(=O)N1CCC[C@H]1c1ncc(-c2ccc(C#Cc3ccc(-c4cnc([C@@H]5CCCN5C(=O)[C@@H](NC(=O)OC)C(C)(C)O)[nH]4)cc3)cc2)[nH]1)C(C)(C)O [Compound 993], the EC50 is reported as < 1 nM. In the case of CC(C)(C)OC(=O)N[C@@H](C(=O)N1CCC[C@H]1c1ncc(C#Cc2ccc(C#Cc3cnc([C@@H]4CCCN4C(=O)[C@H](NC(=O)OC(C)(C)C)c4ccccc4)[nH]3)cc2)[nH]1)c1ccccc1 [Compound 300], the EC50 is reported as < 1 nM. For COC(=O)N[C@H](C(=O)N1CCC[C@H]1c1ncc(-c2ccc(C#Cc3ccc4nc([C@@H]5CCCN5)[nH]c4c3)cc2)[nH]1)C(C)C [Compound 1056], the EC50 was 10 to 999 nM. CC(C)[C@H](NC(=O)N1CCNCC1)C(=O)N1CCC[C@H]1c1ncc(-c2ccc(C#Cc3ccc(-c4cnc([C@@H]5CCCN5C(=O)[C@@H](NC(=O)N5CCNCC5)C(C)C)[nH]4)cc3)cc2)[nH]1 [Compound 967] showed an EC50 of 10 to 999 nM. Work on CC(C)[C@@H](NC(=O)OC(C)(C)C)C(=O)N1CCC[C@H]1C(=O)NCCc1ccc(C#Cc2cnc([C@@H]3CCCN3C(=O)[C@H](NC(=O)OC(C)(C)C)C(C)C)[nH]2)cc1 [Compound 126] yielded an EC50 of 10 to 999 nM. With COC(=O)N[C@@H](C(=O)N1CCC[C@H]1c1ncc(-c2ccc(C#Cc3ccc(C(=O)NC[C@@H]4CCCN4C(=O)[C@@H](c4ccccc4)N(C)C)cc3)cc2)[nH]1)c1ccccc1 [Compound 234] the EC50 was < 1 nM. CC(C)[C@@H](NC(=O)C1CC1)C(=O)N1CCC[C@H]1C(=O)NCCc1ccc(C#Cc2cnc([C@@H]3CCCN3C(=O)[C@H](NC(=O)C3CC3)C(C)C)[nH]2)cc1 [Compound 127] showed an EC50 of 10 to 999 nM. Work on CC(C)[C@@H](NC(=O)C1CC1)C(=O)N1CCC[C@H]1C(=O)Nc1ccc(C#Cc2cnc([C@@H]3CCCN3C(=O)[C@H](NC(=O)C3CC3)C(C)C)[nH]2)cc1 [Compound 116] yielded an EC50 of 1 to 9.9 nM. For CCN(CC)[C@@H](C(=O)N1CCC[C@H]1c1ncc(-c2ccc(C#Cc3ccc(-c4cnc([C@@H]5CCCN5C(=O)[C@@H](c5ccccc5)N(CC)CC)[nH]4)cc3)cc2)[nH]1)c1ccccc1 [Compound 173], the EC50 was < 1 nM. CCOC(=O)N[C@@H](C(=O)N1CCC[C@H]1c1ncc(-c2ccc(C#Cc3ccc(-c4cnc([C@@H]5CCCN5C(=O)[C@H](NC(=O)OCC)c5ccccc5)[nH]4)cc3)cc2)[nH]1)c1ccccc1 [Compound 244] was tested, and the EC50 was < 1 nM. For COC(=O)N[C@H](C(=O)N(C)[C@@H](C)c1ncc(-c2ccc(C#Cc3ccc(-c4cnc([C@@H]5CCCN5C(=O)[C@@H](NC(=O)OC)C(C)C)[nH]4)cc3)cc2)[nH]1)C(C)C [Compound 267], the EC50 was < 1 nM. In the case of C[C@@H](NC(=O)[C@@H]1CCCN1C(=O)[C@H](NC(=O)OC(C)(C)C)c1ccccc1)c1ccc(C#Cc2ccc(-c3cnc([C@@H]4CCCN4C(=O)[C@H](NC(=O)OC(C)(C)C)c4ccccc4)[nH]3)cc2)cc1 [Compound 167], the EC50 is reported as 1 to 9.9 nM.

Same assay, conditions: Hepatitis C virus, Huh-7, read-out: Inhibition of HCV genotype 1b
COC(=O)N[C@@H](C(=O)N1CCC[C@H]1CNC(=O)c1ccc(C#Cc2ccc3nc([C@@H]4CCCN4C(=O)[C@H](NC(=O)OC)c4ccccc4)[nH]c3c2)cn1)c1ccccc1 [Compound 1241] was tested, and the EC50 was < 1 nM. C#CC[C@H](NC(=O)OC)C(=O)N1CCC[C@H]1c1nc2ccc(C#Cc3ccc4c(c3)CCCc3nc([C@@H]5CCCN5C(=O)[C@@H](NC(=O)OC)C(C)C)[nH]c3-4)cc2[nH]1 [Compound 1284] was tested, and the EC50 was < 1 nM. COC(=O)N[C@H](C(=O)N1CCC[C@H]1c1nc(C)c(C#Cc2ccc3cc(-c4cnc([C@@H]5CCCN5C(=O)[C@@H](NC(=O)OC)[C@@H](C)OC)[nH]4)ccc3c2)[nH]1)C1CCCC1 [Compound 1266] was tested, and the EC50 was < 1 nM. For COC(=O)N[C@H](C(=O)N1CCC[C@H]1c1ncc(-c2ccc3cc(C#Cc4[nH]c([C@@H]5CCCN5C(=O)[C@@H](NC(=O)OC)C5CCOCC5)nc4C(F)(F)F)ccc3c2)[nH]1)C1CCOCC1 [Compound 1256], the EC50 was < 1 nM. With COC(=O)N[C@H](C(=O)N1CCN(C(=O)OC)C[C@H]1c1ncc(-c2ccc(C#Cc3ccc4nc([C@@H]5CCCN5C(=O)[C@H](NC(=O)OC)c5ccccc5)[nH]c4c3)cc2)[nH]1)C(C)C [Compound 1230] the EC50 was < 1 nM. In the case of COC(=O)NC(C(=O)N1CCC[C@H]1c1nc2ccc(C#Cc3ccc4cc(-c5cnc([C@@H]6CCCN6C(=O)[C@@H](NC(=O)OC)C6CCOCC6)[nH]5)ccc4n3)cc2[nH]1)C(C)C (some centres unmarked) [Compound 1290], the EC50 is reported as < 1 nM. With COC(=O)N[C@H](C(=O)N1CCC[C@H]1c1nc2ccc3cc(C#Cc4ccc5nc([C@@H]6CCCN6C(=O)[C@@H](NC(=O)OC)C6CCOCC6)[nH]c5c4)ccc3c2[nH]1)C(C)C [Compound 1274] the EC50 was < 1 nM. In the case of COC(=O)N[C@H](C(=O)N1CCN(C(=O)OC)C[C@H]1c1ncc(-c2ccc(C#Cc3ccc4nc([C@@H]5CCCN5C(=O)[C@@H](NC(=O)OC)C5CCOCC5)[nH]c4c3)cc2)[nH]1)C(C)C [Compound 1229], the EC50 is reported as < 1 nM.
